In US20060008891A1, “Cathepsin G-related peptides as modulators of formylpeptide receptors (FPR)” (The Government of USA as repersented by the Secretary, …, priority 2004, published 2006):
Entries after “also recorded” stand apart in the source; their conditions may differ.

How the values were obtained:
monocytes = experiment: Calcium flux (Fura-2), monocytes; format: cell-based, human
Description: Monocytes or ETFR cells (10^7 cells/ml in RPMI 1640 containing 10% FBS) were loaded with 5 μM Fura-2 at room temperature (30 min for monocytes, 60 min for ETFR cells) in the dark. The cells were washed and resuspended (0.5×10^6 cells/ml) in saline buffer (138 mM NaCl, 6 mM KCl, 1 mM CaCl2, 10 mM HEPES, 5 mM glucose, and 1% BSA, pH 7.4). Two milliliters of the cell suspension were transferred to a quartz cuvette, which was placed in a luminescence spectrometer LS55 (Perkin-Elmer, Beaconsfield, UK). Calcium mobilization was measured by recording the ratio of the fluorescence excited at 340 and 380 nm in response to stimulants.

FPR [1] = molecular target: T1, FPR (Homo sapiens, UniProt P21462); experiment: 3[H]-fMLF binding competition on monocytes and ETFR cells; conditions: 3 nM 3[H]-fMLF
T1 construct: expressed in transfected cells; host or cells: Rat basophilic leukemia (RBL) cells, stably transfected (ETFR cells); gift of H. Ali and R. Snyderman, Duke University
T1 sequence (P21462 1-350): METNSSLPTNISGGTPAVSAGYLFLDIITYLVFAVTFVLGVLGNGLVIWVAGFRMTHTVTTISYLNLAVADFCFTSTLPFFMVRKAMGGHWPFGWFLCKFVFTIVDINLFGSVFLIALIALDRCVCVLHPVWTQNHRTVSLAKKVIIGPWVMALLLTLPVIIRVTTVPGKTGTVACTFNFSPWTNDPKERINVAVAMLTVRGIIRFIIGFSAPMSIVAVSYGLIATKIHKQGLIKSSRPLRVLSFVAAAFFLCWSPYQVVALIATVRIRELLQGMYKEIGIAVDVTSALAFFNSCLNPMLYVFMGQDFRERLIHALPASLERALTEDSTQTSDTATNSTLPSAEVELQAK
From the text: The cells were then filtered onto Whatman paper discs, which were air-dried and measured for […].

parental RBL cells = experiment: 125I-CaG binding to parental RBL cells; set-up: species or system rat; conditions: 25 nM 125I-CaG
Description: CaG was iodinated with a chrolamine-T method (Lofstrand Labs, Gaithersburg, Md.) with a specific activity of […] protein. Duplicate samples of ETFR cells or the parental RBL cells (2×10^6 cells in 200 μl RPMI 1640 containing 1% bovine serum albumin, 25 mM Hepes, and 0.05% NaN3) were incubated with 25 nM ^125I-CaG, in the presence of increasing concentrations of unlabeled ligands. After incubation and rotation at room temperature for 1 h, the cells were pelleted through a 10% sucrose/PBS cushion for 1 min at 10,000 g. The supernatant was removed and the radioactivity associated with cell pellets was measured in a γ counter (CliniGamma, Pharmacia Biotech Inc.). The binding data were analyzed with a Macintosh computer-aided program LIGAND (Dr. P. Munson, Division of Computer Research and Technology, NIH, Bethesda, Md.).

FPR [2] = molecular target: T1, FPR; experiment: FPR cell surface expression (FACS), ETFR cells and monocytes; format: cell-based; conditions: 5 μg/ml CaG or 1 μM fMLF, 37° C. 30 min
Description: Cell surface expression of FPR was monitored by a flow cytometer (FACS). Monocytes and ETFR cells (1×10^6 cells/sample) were pretreated with medium or stimulants at 37° C. for 30 minutes. After two washes with cold FACS buffer (DPBS, 1% FCS, 0.02% sodium azide, and 5 mM EDTA, pH7.4), the cells were blocked with 5% normal rat serum followed by incubation with a monoclonal anti-human FPR antibody or isotype matched IgG on ice for 30 min. After three washes with FACS buffer, FITC-labeled rat anti-mouse antibody (PharMingen) was applied and incubated on ice for 30 min. The cells were then washed twice with FACS buffer and analyzed immediately by flow cytometry (Becton Dickinson, San Jose, Calif.).

FPR [3] = molecular target: T1, FPR; experiment: FPR internalization (confocal microscopy), ETFR cells; format: cell-based; conditions: 30 min 37° C.
Description: For detection of FPR internalization, ETFR cells were seeded on coverslips and cultured overnight in DMEM containing 10% FCS at 37° C. After pretreatment with medium or stimulants for 30 minutes at 37° C., the cells were fixed in 0.25% paraformaldehyde for 15 min at 4° C. The cells were then permeabilized with 0.2% Tween 20 for 30 min at 4° C., followed by incubation with a monoclonal anti-human FPR antibody or isotype matched IgG for 30 min at 4° C. After three washes with 0.1% Tween 20 in DPBS, a FITC-labeled rat anti-mouse antibody (PharMingen) was applied to the cells for 30 min at 4° C. The coverslips were covered with DAPI, then mounted with an anti-fade, water-based mounting medium and analyzed under a laser scanning Zeiss LSM410 fluorescence confocal microscope.

Akt = experiment: Phosphorylation of Akt in ETFR cells (Western blot); format: cell-based, rat
Description: ETFR cells were plated in Petri dishes and cultured in DMEM at 37° C. in humidified 5% CO2 atmosphere for 48 h. After further culture in serum-free DMEM overnight, the cells were treated with stimulants for indicated time periods. The reaction was stopped by adding 1 ml ice-cold PBS, and the cells were lysed in 1×SDS lysis buffer (62.5 mM Tris-HCl, 2% w/v SDS, 10% glycerol, 50 mM DTT, pH 6.8) and harvested into tubes for sonication. Proteins (50 μg for each sample) were resolved by SDS-PAGE and transferred onto nitrocellulose membranes (Bio-Rad, Hercules, Calif.). The membranes were blocked for 2 h at room temperature in 3% non-fat milk prepared in Tris-buffered saline-T (10 mM Tris-HCl, pH 7.5, 150 mM NaCl, 0.1% Tween 20) and probed with anti-p-ERK1/2, p-p38 MAPK, or p-Akt (1:1000) at room temperature for 1-2 h or at 4° C. overnight. The membranes were then washed and incubated with horseradish peroxidase-conjugated secondary antibodies diluted in Tris-buffered saline-T for 1 h at room temperature. The immune complexes on the membranes were visualized using ECL reagents. Total ERK1/2, p38 MAPK, and Akt were visualized by stripping the same membrane and probing with antibodies against total ERK1/2, p38 MAPK, and Akt.

IC50, displacement of 3[H]-fMLF binding (FPR [1]): 2.5 µg/mL
Substance: CaG: Cathepsin G, serine protease purified from neutrophil granules, purchased from Athens Research & Technology
Ca2+ flux (monocytes; CaG 10 μg/ml): failed to induce significant Ca^2+ flux
attenuation of Ca2+ response to fMLF (monocytes; CaG 10 μg/ml, 0.1 nM fMLF): attenuated cell response induced by low concentrations of fMLF; also recorded: significantly attenuated cell response to 0.1 nM fMLF
Ca2+ mobilizing activity (monocytes; concentrations up to 20 μg/ml (800 nM)): lacked significant Ca^2+ mobilizing activity
specific binding of 125I-CaG to parental RBL cells (parental RBL cells): no measurable levels of specific binding
down-regulation of FPR from the cell surface (FPR [2]): weaker, but significant ability of CaG to down-regulate FPR
FPR internalization (FPR [3]): significantly and dose-dependently induced FPR internalization
time to activation of Akt (Akt): 1 to 5 min
